The record followed here is patent publication US11696912B2, “Charged ion channel blockers and methods for use” (Nocion Therapeutics, Inc., priority 2019, dated 2023).

Some results are limits rather than exact numbers.

What is called inhibition is the change of the read-out against control, counted positive when it falls. What is called Papp is the rate of passage across a membrane or cell layer, normalised by area and donor concentration.

In data set [1] the target is T1, NaV1.7 (Homo sapiens, UniProt Q15858).
T1 construct: expressed in transfected cells; host or cells: Tetracycline-inducible cell line kept under hygromycin and blasticidin selection
The data set is described as follows: Nav1.7 intracellular inhibition, whole cell patch clamp (internal block). Type of data set: cell-based. To be noted: compound in internal solution; for inhibition at 10 µM: test concentration of 10 μM. Here is the method: (§1) NaV1.7 was expressed upon induction with tetracycline. Cells were cultured in DMEM containing 10% dialyzed Fetal Bovine Serum (VWR, Radnor, Pa.), 1% Glutamax (VWR, Radnor, Pa.), 1% Penicillin-Streptomycin (VWR, Radnor, Pa.), 100 mg/L Hygromycin (Thermo Fisher Scientific, Waltham, Mass. and 5 mg/L Blasticidin (Alfa Aesar, Haverhill MAI Cells were grown and maintained at 37° C. in a humidified environment containing 10% CO2 in air. Cells were detached from the culture flask for passage and harvested using 0.05% Trypsin-EDTA (Thermo Fisher Scientific, Waltham, Mass.). To induce NaV1.7, cells were induced with tetracycline (0.1-1 μg/mL, IBI Scientific, Peosta, Iowa) the day before recording and plated onto 24-well plates. Cells were washed with DPBS (VWR, Radnor, Pa.), trypsinized and then triturated five times in 10 mL of growth media to break apart cell aggregates. For one 24-well plate, 2 mL of cell suspension was mixed with 23 mL of fresh growth media and 0.1-1 μg/mL tetracycline added. 1 ml of mixed media with cells was then added to each well of a 24-well plate, with a 12 mm coverslip already placed in the bottom of the well. Cells were then incubated in 37° C. and 10% CO2 overnight.
(§2) The intracellular solution contained the following (in mM) CsCl 135, NaCl 10, […], HEPES 10, MgCl2 2, adjusted to pH 7.2 with CsOH. The external solution was a normal Ringer solution containing (in mM) NaCl 155, HEPES 10, glucose 10, KCl 3.5, CaCl2 1.5, MgCl2 1 adjusted to pH 7.4 with NaOH. CsCl was from Alfa Aesar, Haverhill Mass. All other chemicals were from Sigma-Aldrich, St. Louis. Mo. In order to test the degree of internal block by test compounds the compounds were dissolved in internal solution at the indicated test concentration. […] In order to test the degree of external block by test compounds the compounds were dissolved in external solution at the indicated test concentration.
(§3) 18-24 hours after cells were induced with tetracycline, coverslips placed into a chamber filled with Normal Ringer solution at room temperature and the chamber placed on a microscope. Pipettes were pulled from borosilicate glass on a P97 puller (Sutter Instrument, Novato, Calif.) and polished with a MF-830 Microforge (Narishige International USA, Inc, Amityville, N.Y.) to have a resistance of 1.5-2.5 MΩ when filled with CsCl internal solution at room temperature. Healthy cells (those that are round and translucent with no visible blemishes) were chosen for seal formation. A seal was formed between the pipette and the cell, and a brief pulse of suction used to “break in” and establish the whole-cell configuration. The membrane potential was held at −100 mV before the voltage protocol began. Only cells with series resistance between 1.5-5 M were retained for analysis. The voltage protocol was as follows: Cells were held at −100 mV for 12 ms followed by a hyperpolarizing step to −105 mV for 12 ms to monitor the leak. Cells were then stepped back to −100 mV for 40 ms. Cells were then depolarized to −20 mV for 10 ms and returned to −100 mV for 26 ms.
(§4) Once the recording was started, the voltage protocol was run at 30 second intervals for 5 minutes to get a stable baseline. This was followed by four 30-second periods of 5 Hz stimulation of the same voltage protocol separated by 1 minute of rest which was then followed by 0.33 Hz stimulation after the last train. Currents were recorded using PatchMaster software with Heka EPC10 (HEKA Electronics, Lambrecht, Germany). Only cells with inward current amplitudes at −20 mV between 400 pA and 4 nA were accepted. In addition, cells having leak currents greater than 10% of their current amplitudes were discarded.
The data was plotted using the Patchmaster software (HEKA Electronics, Lambrecht, Germany) and analyzed by plotting the minimum current during the voltage step to −20 mV (peak inward current) as a function of time. […]
(In general: Patch clamp records ionic current or voltage across a cell membrane.)

Data set [2] concerns the target T1, NaV1.7. The data set is described as follows: Nav1.7 extracellular inhibition, whole cell patch clamp (external block). In kind it is cell-based. As to conditions: compound in external solution; for inhibition at 10 µM: read-out: Nav1.7 extracellular inhibition, extracellular inhibition, read-out: Nav1.7 Intracellular Inhibition; for inhibition at 30 µM: test concentration of 30 μM. How it is done: as §1, §2, §3
as §4, with “by” for “by four 30-second periods of”, “run until the end” for “separated by 1 minute”, “experiment. […] The test compound” for “rest which”, “added for 5 minutes before washing out with normal Ringer's solution.” for “then followed by 0.33 Hz stimulation after the last train.”
The data was plotted using the Patchmaster software (HEKA Electronics, Lambrecht, Germany) and analyzed by plotting the minimum current during the voltage step to −20 mV (peak inward current) as a function of time. To determine the % block produced by test compounds applied externally the following was done. […]

Data set [3] in a line: PAMPA artificial lipid membrane permeability. In kind it is in vitro ADME. As to conditions: pH 7.4, 4 hours incubation, GIT lipid; for Papp at 4 h, 50 µM: PAMPA. How it is done:
The PAMPA assay (pION, Inc., Woburn Mass.) was used to determine the ability of compounds of the invention to cross an artificial lipid membrane by passive diffusion. Test compounds were dissolved in DMSO (10 mM) and diluted 200-fold in buffer (pION Inc., pH 7.4) to provide 50 uM stock solutions. Buffer (150 μL) was added to a UV blank plate and stock solutions (150 μL) were transferred to a UV reference plate. The blank and reference spectrum were read using a spectrophotometer. Stock solutions (200 μL) were added to the donor plate of the PAMPA sandwich plate and an accept plate painted with GIT lipid (pION Inc, 5 μL) was placed on top. Buffer (200 μL) was added to the acceptor plate and the PAMPA sandwich plate was incubated for 4 hours. Aliquots (150 μL) from the acceptor plate were added to a UV plate and read as acceptor spectrum. Aliquots (150 μL) of the donor solutions were added to a UV analysis plate and read as donor spectrum. The permeability coefficient of test compounds was calculated using PAMPA Explorer™ software (version 3.5.0.4) based on the AUC of the reference plate, the donor plate, and the acceptor plate.
In general terms: PAMPA measures passive passage across an artificial lipid membrane.

T1 sequence (Q15858 whole entry): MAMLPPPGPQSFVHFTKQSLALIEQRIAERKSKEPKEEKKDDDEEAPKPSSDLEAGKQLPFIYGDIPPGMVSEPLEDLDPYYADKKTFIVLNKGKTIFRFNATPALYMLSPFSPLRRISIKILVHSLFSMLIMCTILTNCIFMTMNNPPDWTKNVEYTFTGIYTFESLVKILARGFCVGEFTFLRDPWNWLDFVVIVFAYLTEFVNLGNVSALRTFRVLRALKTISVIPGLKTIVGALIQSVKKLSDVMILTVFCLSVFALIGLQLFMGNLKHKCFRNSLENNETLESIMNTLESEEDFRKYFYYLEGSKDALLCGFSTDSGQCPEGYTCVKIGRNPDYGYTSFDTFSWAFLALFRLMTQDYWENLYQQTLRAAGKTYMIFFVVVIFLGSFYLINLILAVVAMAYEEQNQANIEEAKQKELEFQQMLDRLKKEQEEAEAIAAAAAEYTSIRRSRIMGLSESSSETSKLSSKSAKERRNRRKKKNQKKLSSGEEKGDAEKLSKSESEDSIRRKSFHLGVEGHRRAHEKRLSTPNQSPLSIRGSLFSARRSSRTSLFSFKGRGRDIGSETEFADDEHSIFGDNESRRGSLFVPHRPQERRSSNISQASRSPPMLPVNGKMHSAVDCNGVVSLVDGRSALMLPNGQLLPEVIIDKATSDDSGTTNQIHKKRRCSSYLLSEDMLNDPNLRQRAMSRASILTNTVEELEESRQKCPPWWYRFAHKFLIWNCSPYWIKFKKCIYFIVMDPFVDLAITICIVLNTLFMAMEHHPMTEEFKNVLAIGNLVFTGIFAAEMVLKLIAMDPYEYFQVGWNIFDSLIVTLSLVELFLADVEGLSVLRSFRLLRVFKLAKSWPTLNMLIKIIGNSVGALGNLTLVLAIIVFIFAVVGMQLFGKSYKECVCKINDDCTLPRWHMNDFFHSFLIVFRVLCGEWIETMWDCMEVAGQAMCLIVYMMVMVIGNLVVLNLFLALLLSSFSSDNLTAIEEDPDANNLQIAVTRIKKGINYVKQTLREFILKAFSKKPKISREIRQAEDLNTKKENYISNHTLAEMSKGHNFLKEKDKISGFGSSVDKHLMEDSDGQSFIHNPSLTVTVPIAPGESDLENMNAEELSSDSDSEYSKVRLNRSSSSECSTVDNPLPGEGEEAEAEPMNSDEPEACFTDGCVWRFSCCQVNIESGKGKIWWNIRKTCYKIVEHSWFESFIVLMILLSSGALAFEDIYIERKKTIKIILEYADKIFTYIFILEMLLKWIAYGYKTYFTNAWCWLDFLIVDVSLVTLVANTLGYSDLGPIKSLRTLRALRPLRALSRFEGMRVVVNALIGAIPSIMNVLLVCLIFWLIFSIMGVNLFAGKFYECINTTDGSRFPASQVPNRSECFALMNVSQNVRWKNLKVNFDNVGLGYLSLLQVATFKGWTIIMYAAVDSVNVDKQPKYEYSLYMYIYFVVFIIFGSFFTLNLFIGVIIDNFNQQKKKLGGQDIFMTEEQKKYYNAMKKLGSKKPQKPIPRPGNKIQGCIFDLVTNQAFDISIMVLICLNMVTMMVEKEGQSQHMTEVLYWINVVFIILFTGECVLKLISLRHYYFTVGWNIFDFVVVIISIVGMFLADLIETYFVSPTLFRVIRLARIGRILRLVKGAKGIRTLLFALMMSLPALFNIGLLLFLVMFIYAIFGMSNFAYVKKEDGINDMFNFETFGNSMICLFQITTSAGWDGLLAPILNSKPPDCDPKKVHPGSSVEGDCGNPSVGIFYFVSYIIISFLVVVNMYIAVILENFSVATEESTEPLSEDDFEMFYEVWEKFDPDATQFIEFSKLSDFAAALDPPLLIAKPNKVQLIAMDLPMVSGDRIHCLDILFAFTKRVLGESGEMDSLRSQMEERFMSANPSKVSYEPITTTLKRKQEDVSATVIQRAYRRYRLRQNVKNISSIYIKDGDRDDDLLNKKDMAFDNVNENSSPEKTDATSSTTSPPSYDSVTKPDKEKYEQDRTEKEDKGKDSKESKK

In data set [1], `Cc1csc(C(=O)OC(C)(C)C)c1NC(=O)C[n+]1cccc(-c2ccccc2)c1.[Br-]` [A] registered an inhibition at 3 µM of 70 to 90%. The inhibition at 10 µM in data set [2] was 40 to 70%. In addition, in data set [3], the “PAMPA (10^−6cm/s)” value is on record as “+ ((<0.1 10^−6 cm/s))”.

In turn, `CCCOC(=O)c1scc(C)c1NC(=O)C[n+]1cccn1C1CCCCC1.[Br-]` [B] showed an inhibition at 3 µM in data set [1] of more than 90%. In addition, the inhibition at 10 µM in data set [2] was less than 40%. The “PAMPA (10^−6cm/s)” value in data set [3] is “+ ((<0.1 10^−6 cm/s))”.

For `CCOC(=O)c1scc(C)c1NC(=O)C[n+]1cccn1C1CCCCC1` [C], the inhibition at 3 µM in data set [1] lay in the range of 70 to 90%. In addition, the inhibition at 10 µM in data set [2] was less than 40%. Moreover, the “PAMPA (10^−6cm/s)” value in data set [3] was “+ ((<0.1 10^−6 cm/s))”.

In data set [1], `COC(=O)c1scc(C)c1NC(=O)C[n+]1cccn1C1CCCCC1` [Compound 22] came in with an inhibition at 3 µM of 40 to 70% and an inhibition at 10 µM of more than 70%. Besides, in data set [2], the inhibition at 10 µM is less than 40% and the inhibition at 30 µM was less than 30%. In addition, in data set [3], the Papp at 4 h, 50 µM was less than 1 ×10⁻⁶ cm/s and the “PAMPA (10^−6cm/s)” value is reported as “+ ((<0.1 10^−6 cm/s))”.

Take `COC(=O)c1scc(C)c1NC(=O)C[n+]1cccc(-c2ccccc2)c1` [Compound 23]: in data set [1], the inhibition at 3 µM lay within 40 to 70% and the inhibition at 10 µM is more than 70%. Also, in data set [2], the inhibition at 10 µM was less than 40% and the inhibition at 30 µM was less than 30%. Also, in data set [3], the Papp at 4 h, 50 µM was less than 1 ×10⁻⁶ cm/s and the “PAMPA (10^−6cm/s)” value is “+ ((<0.1 10^−6 cm/s))”.

For `Cc1cccc(C(=O)OC(C)(C)C)c1NC(=O)C[n+]1cccn1C1CCCCC1.[Br-]` [D], the inhibition at 3 µM in data set [1] fell in the range of 70 to 90%. Also, the inhibition at 10 µM in data set [2] was less than 40%. Moreover, the “PAMPA (10^−6cm/s)” value in data set [3] was “+ ((<0.1 10^−6 cm/s))”.
